Experimental data reported in US20240124442A1, “TRICYCLIC-AMIDO-BICYCLIC PRMT5 INHIBITORS” (AMGEN INC., priority 2021, published 2024).

Columns and labels:
[1] = test system: HCT116 MTAP null cells; assay: HCT116 MTAP null cell line proliferation / cell viability (CellTiter-Glo, 6 days); assay type: cell-based; conditions: 144 h; HCT116 MTAP null cells, 6 days treatment, CellTiter-Glo cell viability; read-out: HCT-116 MTAP null IC50
Description: (§1) HCT116 Proliferation Activity
(§2) To assess selective anti-proliferative activity of compounds of the invention in cells that have loss expression of MTAP, an HCT-116 isogenic cell line pair was utilized where one cell line was engineered to genetically knockout both MTAP alleles. Cell viability was then assessed in both the parent HCT-116 cell line and the MTAP null cell line after 6 days of treatment with compounds of the present invention. Selective anti-proliferative activity in the MTAP null cell line indicates MTA-cooperative inhibition of PRMT5 and ability to inhibit growth of cancer cells that have loss of MTAP.
(§3) HCT116 MTAP null and WT cells were seeded in 96-well tissue culture plates in RPMI 1640 media+10% fetal bovine serum. Plates were incubated overnight at 37° C. and 5% CO2. Cells were then treated with an 8- or 9-point serial dilution of compound, using a top concentration of 1, or 10 μM, 1:3 serial dilution steps and, a DMSO-only control. Cells were incubated in the presence of drug for 6 days. Effects on cell viability were measured with the CellTiter-Glo® Luminescent Cell Viability Assay (Promega) per manufacturer's recommendation. Assay plates were read on an EnVision™ Multilabel Reader using the Ultra-Sensitive luminescence module. IC50 values were calculated with GraphPad Prism v 5.01 using symmetrical sigmoidal dose-response least squares fit with Hill slope fixed to −1 and top constrain to 100% or GeneData Screener using a 4-parameter logistic model to fit dose response curves.
(§4) Alternatively, compounds could be assayed with a 384 well plate format:
(§5) Compounds were pre-spotted into 384 well plates with a 22-point serial dilution of compound, using a top concentration of 10 or 50 μM, 1:2 serial dilution steps and, a DMSO-only control. HCT116 MTAP null and WT cells were then seeded as above and after 6 days effects on cell viability were measured with the CellTiter-Glo® Luminescent Cell Viability Assay (Promega). Assay plates were read as above and IC50 values were calculated with GeneData Screener using a 4-parameter logistic model to fit dose response curves. The reported IC50 represents the value where the curve transits 50% of control.

[2] = test system: HCT116 WT cells; assay: HCT116 WT (parent) cell line proliferation / cell viability (CellTiter-Glo, 6 days); assay type: cell-based; conditions: Homo sapiens, HCT-116, 144 h, 6 days treatment
Description: as §1, §2, §3, §4, §5

Structure (SMILES)	IC50 [1] [nM]	IC50 [2] [nM]
CN(C(=O)c1cc2c3c(c(N)nc2cn1)COC3)[C@H]1COc2cc(S(F)(F)(F)(F)F)ccc21 (single isomer, unassigned) [Example 344]	1060	19400
CN(C(=O)c1ccc2nc(N)c3cnn(C)c3c2c1)[C@@H]1COc2cc(-c3cc(F)cc(OC(F)F)c3)ccc21 [Example 659, 4-amino-N-((3S)-6-(3-(difluoromethoxy)-5-fluorophenyl)-2,3-dihydro-1-benzofuran-3-yl)-N,1-dimethyl-1H-pyrazolo[4,3-c]quinoline-8-carboxamide]	25	1280
CN(C(=O)c1cc2c3c(c(N)nc2cn1)COC3)[C@@H]1COCc2ccc(C(F)(F)F)cc21 (single isomer, unassigned) [Example 583]	403	8860
C[C@H]1OCc2c1c(N)nc1ccc(C(=O)N(C)[C@@H]3COCc4nc(C(F)(F)F)ccc43)cc21 [Example 488, (3R)-4-amino-N,3-dimethyl-N-((5S)-2-(trifluoromethyl)-5,8-dihydro-6H-pyrano[3,4-b]pyridin-5-yl)-1,3-dihydrofuro[3,4-c]quinoline-8-carboxamide]	13	682
Cn1ncc2c(N)nc3ccc(C(=O)N(C4CC4)[C@@H]4COCc5nc(C(F)(F)F)ccc54)cc3c21 [Example 503, 4-amino-N-cyclopropyl-1-methyl-N-((5S)-2-(trifluoromethyl)-5,8-dihydro-6H-pyrano[3,4-b]pyridin-5-yl)-1H-pyrazolo[4,3-c]quinoline-8-carboxamide]	18	1260
CN(C(=O)c1cc2c3c(c(N)nc2cc1Cl)COC3)[C@@H]1COc2nc(C(F)(F)F)ccc21 (single isomer, unassigned) [Example 562]	26	1820
CN(C(=O)c1cc2c(cc1Cl)nc(N)c1c2cnn1C)[C@@H]1COc2cc(OC(F)(F)F)ccc21 [Example 487, 4-amino-7-chloro-N,3-dimethyl-N-((3S)-6-(trifluoromethoxy)-2,3-dihydro-1-benzofuran-3-yl)-3H-pyrazolo[3,4-c]quinoline-8-carboxamide]	47	2870
CN(C(=O)c1cc2c3c(c(N)nc2cc1C#N)COC3)[C@@H]1COc2cc(C(F)(F)F)ccc21 [Example 218, 4-amino-7-cyano-N-methyl-N-((3S)-6-(trifluoromethyl)-2,3-dihydro-1-benzofuran-3-yl)-1,3-dihydrofuro[3,4-c]quin-oline-8-carboxamide]	13	838
CN(C(=O)c1ccc2nc(N)c3c(c2c1)COC3)[C@@H]1CCOc2cc(C(F)(F)F)ccc21 (single isomer, unassigned) [Example 578]	222	5880
C[C@@H]1OC[C@@H](N(C)C(=O)c2ccc3nc(N)c4c(cnn4C)c3c2)c2ccc(C(F)(F)F)cc21 (single isomer, unassigned) [Example 603]	327	16000
CCN(C(=O)c1ccc2nc(N)c3c(c2c1)COC3)[C@@H]1COCc2cc(Br)ccc21 (single isomer, unassigned) [Example 580]	19	976
CN(C(=O)c1ccc2nc(N)c3cnn(C)c3c2c1)[C@@H]1COCc2nc(C(F)(F)F)ccc21 [Example 286, 4-amino-N,1-dimethyl-N-((5S)-2-(trifluoromethyl)-5,8-dihydro-6H-pyrano[3,4-b]pyridin-5-yl)-1H-pyrazolo[4,3-c]quinoline-8-carboxamide]	8	619
CN(C(=O)c1ccc2nc(N)c3cnn(C)c3c2c1)[C@@H]1CCCc2nc(C(F)(F)F)ccc21 (single isomer, unassigned) [Example 411]	83	6270
CN(C(=O)c1ccc2nc(N)c3cnn(C)c3c2c1)[C@@H]1COCc2cc(Br)ccc21 (single isomer, unassigned) [Example 412]	4	228
